What was measured:
[1] = tested on: Phytophthora infestans; format: in vivo; conditions: tomato, direct protectant foliar spray
[2] = tested on: Erysiphe graminis f.sp. hordei; assay: Direct protectant activity against barley powdery mildew (EGP); format: in vivo; conditions: direct protectant foliar spray, 8 days
Method in brief: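 Barley seedlings (cv Golden Promise, single-leaf stage) were foliar-sprayed, held 24 h at 18 °C/40% RH, then dusted with mildew conidia. After 8 days at 18 °C/40% RH, sporulating leaf area was scored as a rating against untreated or diluent-sprayed controls.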

[3] = tested on: Botrytis cinerea; assay: Direct protectant activity against broad bean grey mould (BCB); format: in vivo; conditions: direct protectant foliar spray, 600 ppm, 4 days
Method in brief: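 Broad bean plants (cv The Sutton, two leaf pairs) sprayed on upper leaf surfaces at 600 ppm, then inoculated 24 h later with 10^6 conidia/ml. Kept 4 days at 22 °C, high humidity; disease control rated from % leaf area with lesions against untreated or diluent controls.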

[4] = tested on: Erysiphe graminis f.sp. hordei; assay: Activity against barley powdery mildew, direct therapeutic (EGT); format: in vivo; conditions: direct therapeutic foliar spray, 600 ppm, up to 7 days
Method in brief: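 Barley seedlings (cv. Golden Promise, single-leaf stage) were dusted with mildew conidia one day before a therapeutic foliar spray of 600 ppm compound. Plants were kept at 18 °C and 40% humidity for up to 7 days, and sporulating leaf area was rated against untreated or diluent-sprayed controls.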

[5] = tested on: Venturia inaequalis; assay: Activity against apple scab in-vitro (VII); format: cell-based; conditions: 10 ppm, 10 days, 20° C., mycelial growth
Method in brief: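 Compound in acetone was tested at 10 ppm final in half-strength Potato Dextrose Broth inoculated with V. inaequalis mycelial fragments and spores at 5×10^4 propagules/ml. After 10 days at 20° C, mycelial growth was rated against untreated or diluent controls.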

[6] = tested on: Plasmopara viticola; assay: Antisporulant activity against vine downy mildew (PVA); format: in vivo; conditions: vine leaves, antisporulant foliar spray, 600 ppm, 750 l/ha
Method in brief: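 Cabernet Sauvignon vines (~8 cm) inoculated on lower leaf surfaces with 5×10^4 zoosporangia/ml, held 24 h at 21° C high humidity then 24 h glasshouse. Infected leaves sprayed underside with 600 ppm compound in 1:1 water/acetone, 0.04% Tween 20, 750 l/ha; 96 h glasshouse, 24 h humidity. Sporulating leaf area rated versus control.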

[7] = tested on: Pseudocercosporella herpotrichoides; assay: Activity against wheat eyespot in-vitro (PHI); format: cell-based; conditions: 10 ppm, 10 days, 20° C., mycelial growth
Method in brief: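 P. herpotrichoides mycelial fragments (5×10^4/ml) grown in half-strength PDB with compound at 10 ppm final, added from acetone. Incubated 10 days at 20 °C; mycelial growth rated against untreated or diluent controls.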

[8] = tested on: Rhizoctonia solani; assay: Activity against Rhizoctonia in-vitro (RSI); format: cell-based; conditions: 10 ppm, 10 days, 20° C., mycelial growth
Method in brief: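 R. solani mycelial fragments (5×10^4/ml) in half-strength Potato Dextrose Broth with compound added from acetone to 10 ppm final. Mycelial growth assessed after 10 days at 20° C, rated against untreated or diluent control.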

[9] = tested on: Alternaria solani; assay: Activity against tomato early blight (AS); format: in vivo; conditions: Table VI; tomato seedlings, contact prophylactic foliar spray, 4 days
Method in brief: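 Foliar contact prophylactic spray on tomato seedlings (cv Outdoor Girl, second true leaf expanded) in acetone/water 50:50 with 0.04% Tween 20; 24 h at 20° C, 40% R.H., then inoculation with 10^4 spores/ml A. solani conidia. Kept moist at 21° C; lesion cover rated 4 days post-inoculation against untreated or diluent-sprayed controls.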

[10] = tested on: Pyricularia oryzae; format: in vivo; conditions: rice seedlings, direct therapeutic foliar spray, 600 ppm, 4-5 days
[11] = tested on: Leptosphaeria nodorum; assay: Activity against wheat leafspot (LN); format: in vivo; conditions: direct therapeutic foliar spray, 600 ppm, 6-8 days
Method in brief: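 Wheat cv Norman at single-leaf stage spray-inoculated with 1.5×10^6 conidia/ml, held 24 h at high humidity, then sprayed therapeutically with test compound at 600 ppm. Kept 6-8 days at 22° C, 70% humidity; lesion density per leaf rated against untreated or diluent-sprayed controls.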

Row | Structure (SMILES) | disease control rating PIP [1] | disease control rating EGP [2] | disease control rating BCB [3] | disease control rating EGT [4] | disease control rating VII [5] | disease control rating PVA [6] | disease control rating PHI [7] | disease control rating RSI [8] | disease control rating AS [9] | disease control rating PO [10] | disease control rating LN [11]
1 | CCCN(C1COC2(CCC(C(C)(C)C)CC2)C1)C1CC2CCC1C2 (centres unmarked) [Compound 130] | 2 (greater than 80% disease control) | 2 (greater than 80% disease control) | 0 (less than 50% disease control) | 2 (greater than 80% disease control) | 1 (about 50-80% disease control) | 0 (less than 50% disease control) | 0 (less than 50% disease control) | 0 (less than 50% disease control) | 0 (less than 50% disease control) | 0 (less than 50% disease control) | 0 (less than 50% disease control)
2 | CCCCCNC1COC2(CCC(c3ccccc3)CC2)C1 (centres unmarked) [Compound 54] | 0 (less than 50% disease control) | 2 (greater than 80% disease control) | 0 (less than 50% disease control) | 2 (greater than 80% disease control) | 1 (about 50-80% disease control) | 0 (less than 50% disease control) | 0 (less than 50% disease control) | 0 (less than 50% disease control) | 0 (less than 50% disease control) | 0 (less than 50% disease control) | 0 (less than 50% disease control)
3 | CN(C1CCCCC1)C1COC2(CCC(C(C)(C)C)CC2)C1 (centres unmarked) [Compound 80] | 2 (greater than 80% disease control) | 2 (greater than 80% disease control) | 1 (about 50-80% disease control) | 2 (greater than 80% disease control) | 0 (less than 50% disease control) | 0 (less than 50% disease control) | 0 (less than 50% disease control) | 1 (about 50-80% disease control) | 0 (less than 50% disease control) | 1 (about 50-80% disease control) | 1 (about 50-80% disease control)
4 | CC(C)CC(C)NC1COC2(CCC(C(C)(C)C)CC2)C1 (centres unmarked) [Compound 110] | 2 (greater than 80% disease control) | 2 (greater than 80% disease control) | 1 (about 50-80% disease control) | 2 (greater than 80% disease control) | 1 (about 50-80% disease control) | 0 (less than 50% disease control) | 1 (about 50-80% disease control) | 1 (about 50-80% disease control) | 0 (less than 50% disease control) | 0 (less than 50% disease control) | 0 (less than 50% disease control)
5 | CCCCCN(C)C1COC2(CCC(C(C)(C)C)CC2)C1 (centres unmarked) [Compound 78] | 0 (less than 50% disease control) | 2 (greater than 80% disease control) | 1 (about 50-80% disease control) | 2 (greater than 80% disease control) | 0 (less than 50% disease control) | 0 (less than 50% disease control) | 0 (less than 50% disease control) | 0 (less than 50% disease control) | 0 (less than 50% disease control) | 0 (less than 50% disease control) | 0 (less than 50% disease control)
6 | CC1CCN(C2COC3(CCC(C(C)(C)C)CC3)C2)CC1 (centres unmarked) [Compound 19] | 0 (less than 50% disease control) | 2 (greater than 80% disease control) | 0 (less than 50% disease control) | 2 (greater than 80% disease control) | 1 (about 50-80% disease control) | 0 (less than 50% disease control) | 0 (less than 50% disease control) | 0 (less than 50% disease control) | 0 (less than 50% disease control) | 0 (less than 50% disease control) | 1 (about 50-80% disease control)
7 | c1ccc(C2CCC3(CC2)CC(NC2CCCCC2)CO3)cc1 (centres unmarked) [Compound 56] | 0 (less than 50% disease control) | 2 (greater than 80% disease control) | 2 (greater than 80% disease control) | 2 (greater than 80% disease control) | 1 (about 50-80% disease control) | 0 (less than 50% disease control) | 0 (less than 50% disease control) | 0 (less than 50% disease control) | 0 (less than 50% disease control) | 0 (less than 50% disease control) | 2 (greater than 80% disease control)
8 | CC(C)(C)C1CCC2(CC1)CC(N1CCOCC1)CO2 (centres unmarked) [Compound 11] | 0 (less than 50% disease control) | 2 (greater than 80% disease control) | 0 (less than 50% disease control) | 0 (less than 50% disease control) | 1 (about 50-80% disease control) | 0 (less than 50% disease control) | 1 (about 50-80% disease control) | 0 (less than 50% disease control) | 0 (less than 50% disease control) | 0 (less than 50% disease control) | 0 (less than 50% disease control)
9 | CC(C)(C)C1CCC2(CC1)CC(N1CCC(c3ccccc3)CC1)CO2 (centres unmarked) [Compound 4] | 0 (less than 50% disease control) | 2 (greater than 80% disease control) | 0 (less than 50% disease control) | 2 (greater than 80% disease control) | 1 (about 50-80% disease control) | 0 (less than 50% disease control) | 1 (about 50-80% disease control) | 0 (less than 50% disease control) | 0 (less than 50% disease control) | 0 (less than 50% disease control) | 1 (about 50-80% disease control)
10 | CC(C)CN(C)C1COC2(CCC(C(C)(C)C)CC2)C1 (centres unmarked) [Compound 121] | 0 (less than 50% disease control) | 2 (greater than 80% disease control) | 0 (less than 50% disease control) | 2 (greater than 80% disease control) | 0 (less than 50% disease control) | 0 (less than 50% disease control) | 0 (less than 50% disease control) | 0 (less than 50% disease control) | 0 (less than 50% disease control) | 0 (less than 50% disease control) | 0 (less than 50% disease control)

Source: US5591741A, “Fungicidal spiroheterocyclic derivatives” (American Cyanamid Company, priority 1993, dated 1997)
